Source: US9815796B2 (Merck Sharp & Dohme Corp., priority 2013, dated 2017)
Read-outs that look alike come from different tables or passages of the source.

Target: Rhesus PDE2A3 (Macaca mulatta, UniProt B3VTJ2)
Experiment: PDE2 fluorescence polarization (IMAP FP) inhibition assay, rhesus enzyme
Type: biochemical, rhesus macaque
Method: The activity of the compounds in accordance with the present invention as PDE2 inhibitors may be readily determined using a fluorescence polarization (FP) methodology (Huang, W., et al., J. Biomol Screen, 2002, 7: 215).
In a typical experiment the PDE2 inhibitory activity of the compounds of the present invention was determined in accordance with the following experimental method. Rhesus PDE2A3 was amplified from rhesus macaque brain cDNA (Biochain Institute, Hayward, Calif.) using primers based on human PDE2A sequence (accession NM_002599.3) where the forward primer containing a Kozak consensus was 5′-[…]-3′ and the reverse primer was 5′-[…]-3′. Amplification with Easy-A High-Fidelity PCR cloning enzyme (Stratagene, La Jolla, Calif.) was 95° C. for 2 minutes followed by thirty three cycles of 95° C. for 40 seconds, 52° C. for 30 seconds, and 72° C. for 2 minutes 48 seconds. Final extension was 72° C. for 7 minutes. The PCR product was TA cloned into pcDNA3.3-TOPO (Invitrogen, Carlsbad, Calif.) according to standard protocol. A consensus sequence was developed from multiple clones and then deposited into GenBank (EU812167). AD293 cells (Stratagene, La Jolla, Calif.) with 70-80% confluency were transiently transfected with rhesus PDE2A3/pcDNA3.3-TOPO using Lipofectamine 2000 according to manufacturer specifications (Invitrogen, Carlsbad, Calif.). Cells were harvested 48 hours post-transfection and lysed by sonication (setting 3, 10×5 sec pulses) in a buffer containing 20 mM HEPES pH 7.4, 1 mM EDTA and Complete Protease Inhibitor Cocktail Tablets (Roche, Indianapolis, Ind.). Lysate was collected by centrifugation at 75,000×g for 20 minutes at 4° C. and supernatant utilized for evaluation of PDE2 activity. The fluorescence polarization assay for cyclic nucleotide phosphodiesterases was performed using an IMAP® FP kit supplied by Molecular Devices, Sunnyvale, Calif. (product # R8139). […] Assays were performed at room temperature in 384-well microtiter plates with an incubation volume of 20.2 μL. Solutions of test compounds were prepared in DMSO and serially diluted with DMSO to yield 8 μL of each of 10 solutions differing by 3-fold in concentration, at 32 serial dilutions per plate. […] 0% of inhibition is determined by using DMSO (1% final concentrations).
A Labcyte Echo 555 (Labcyte, Sunnyvale, Calif.) is used to dispense 200 nL from each well of the titration plate to the 384 well assay plate. Ten microliters of a solution of enzyme (1/2000 final dilution from aliquots; sufficient to produce 20% substrate conversion) was added to the assay plate. Next 10 uL of a separate solution of the substrate FAM-labeled cAMP (50 nM final concentration product # R7506 from Molecular Devices) and the activator cGMP (1 uM final concentration), prepared in the assay buffer (10 mM Tris HCl, pH 7.2, 10 mM MgCl2, 0.05% NaN3 0.01% Tween-20, and 1 mM DTT) was added to the assay plate and shaken to mix. The reaction is allowed to proceed at room temperature for 60 minutes. A binding solution is then made from the kit components, comprised of 80% Solution A, 20% Solution B and binding reagent at a volume of 1/600 the total binding solution. The enzymatic reaction is stopped by addition of 60 μL of the binding solution to each well of the assay plates and the plates are sealed and shaken for 30 seconds. The plate was incubated at room temperature for at least one hour prior to determining the fluorescence polarization (FP). The parallel and perpendicular fluorescence of each well of the plate was measured using a Tecan Genios Pro plate reader (Tecan, Switzerland) or Perkin Elmer EnVision™ plate reader (Waltham, Mass.). Fluorescence polarization (mP) was calculated from the parallel (S) and perpendicular (P) fluorescence of each sample well and the analogous values for the median control well, containing only substrate (So and Po), using the following equation: Polarization (mP)=1000*(S/So−P/Po)/(S/So+P/Po).

[1] = Rhesus PDE2, Lab B, read-out: Rhesus PDE2 Ki (nM) - Lab B
[2] = Rhesus PDE2, Lab A, read-out: Rhesus PDE2 Ki (nM) - Lab A

Sequence of Rhesus PDE2A3 (B3VTJ2 1-941): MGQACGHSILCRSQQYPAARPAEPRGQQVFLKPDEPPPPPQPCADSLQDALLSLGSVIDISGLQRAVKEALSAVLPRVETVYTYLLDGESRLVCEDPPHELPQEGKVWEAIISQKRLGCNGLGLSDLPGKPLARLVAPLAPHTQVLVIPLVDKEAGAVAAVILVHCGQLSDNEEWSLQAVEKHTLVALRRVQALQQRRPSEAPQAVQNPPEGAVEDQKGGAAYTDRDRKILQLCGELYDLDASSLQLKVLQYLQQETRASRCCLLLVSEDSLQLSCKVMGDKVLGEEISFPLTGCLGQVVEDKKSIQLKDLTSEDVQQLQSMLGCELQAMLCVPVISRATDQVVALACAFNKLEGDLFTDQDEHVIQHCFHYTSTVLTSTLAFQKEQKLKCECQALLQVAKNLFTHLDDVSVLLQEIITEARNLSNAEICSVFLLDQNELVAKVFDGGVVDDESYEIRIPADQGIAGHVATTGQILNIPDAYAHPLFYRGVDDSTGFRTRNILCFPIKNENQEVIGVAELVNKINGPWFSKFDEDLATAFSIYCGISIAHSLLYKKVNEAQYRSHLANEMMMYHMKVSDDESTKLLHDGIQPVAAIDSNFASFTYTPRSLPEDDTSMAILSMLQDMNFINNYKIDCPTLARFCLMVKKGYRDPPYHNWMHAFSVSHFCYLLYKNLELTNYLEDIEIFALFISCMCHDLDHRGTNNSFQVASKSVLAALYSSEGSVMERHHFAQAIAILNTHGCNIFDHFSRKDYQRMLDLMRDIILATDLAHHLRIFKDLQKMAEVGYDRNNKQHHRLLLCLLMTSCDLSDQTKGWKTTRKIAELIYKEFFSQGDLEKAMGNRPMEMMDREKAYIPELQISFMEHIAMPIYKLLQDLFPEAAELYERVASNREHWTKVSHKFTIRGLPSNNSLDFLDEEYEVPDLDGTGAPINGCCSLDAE

Ki [1] [nM]	Ki [2] [nM]	SMILES	Rhesus PDE2 % inh. at 1 uM - Lab A (Rhesus PDE2, Lab A) [% inh.]
111		CC[C@@H](NC(=O)c1cc(=O)[nH]c(C(C)(C)c2ccc(OC)cc2)n1)c1ccc(C(F)(F)F)c(F)c1 [Example 503, N-{(1R)-1-[3-fluoro-4-(trifluoromethyl)phenyl]propyl}-2-[1-(4-methoxyphenyl)-1-methylethyl]-6-oxo-1,6-dihydropyrimidine-4-carboxamide]	
224		C[C@@H](NC(=O)c1cc(=O)[nH]c(-c2ccccc2)n1)c1ccc([N+](=O)[O-])cc1 [Example 459, N-[(1R)-1-(4-nitrophenyl)ethyl]-6-oxo-2-phenyl-1,6-dihydropyrimidine-4-carboxamide]	
963	~605	C[C@@H](NC(=O)c1cc(=O)[nH]c(-c2ccccc2)n1)c1ccccc1 [Example 342, 6-oxo-2-phenyl-N-[(1R)-1-phenylethyl]-1,6-dihydropyrimidine-4-carboxamide]	
490	345	CC(NC(=O)c1cc(=O)[nH]c(-c2ccccc2)n1)c1ccc(C(F)(F)F)nc1 (stereo not shown) [Example 356, 6-oxo-2-phenyl-N-{1-[6-(trifluoromethyl)pyridin-3-yl]ethyl}-1,6-dihydropyrimidine-4-carboxamide]	
	467	C[C@@H](NC(=O)c1cc(=O)[nH]c(-c2ccccc2)n1)c1cccc(C(F)(F)F)c1 [Example 168, 6-oxo-2-phenyl-N-{(1R)-1-[3-(trifluoromethyl)phenyl]ethyl}-1,6-dihydropyrimidine-4-carboxamide]	
3930		O=C(c1cc(=O)[nH]c(-c2ccccc2)n1)N1Cc2cnc(-c3ccccc3)nc2C1 [Example 409, 2-phenyl-6-[(2-phenyl-5,7-dihydro-6H-pyrrolo[3,4-d]pyrimidin-6-yl)carbonyl]pyrimidin-4(3H)-one]	
129		Cc1nc(C(=O)NC(C)(C)c2ccc(S(F)(F)(F)(F)F)cc2)cc(=O)[nH]1 [Example 677, 2-methyl-N-{1-methyl-1-[4-(pentafluoro-λ^6-sulfanyl)phenyl]ethyl}-6-oxo-1,6-dihydropyrimidine-4-carboxamide]	
> 2970		C[C@H](O)[C@@H](NC(=O)c1cc(=O)[nH]c(C2CC2)n1)c1ccc(C(F)(F)F)cc1 [Example 442, 2-cyclopropyl-N-{(1S,2S)-2-hydroxy-1-[4-(trifluoromethyl)phenyl]propyl}-6-oxo-1,6-dihydropyrimidine-4-carboxamide]	
	845	C[C@@H](NC(=O)c1cc(=O)[nH]c(-c2ncccn2)n1)c1cccc(C(F)(F)F)c1 [Example 80, 6-oxo-N-{(1R)-1-[3-(trifluoromethyl)phenyl]ethyl}-1,6-dihydro-2,2′-bipyrimidine-4-carboxamide]	
> 2970		CCOC(=O)c1ccc([C@@H](C)NC(=O)c2cc(=O)[nH]c(-c3ncccn3)n2)cc1 [Example 432, ethyl 4-[(1R)-1-{[(6-oxo-1,6-dihydro-2,2′-bipyrimidin-4-yl)carbonyl]amino}ethyl]benzoate]	
~29200		CCOC(=O)c1ccc([C@@H](C)NC(=O)c2cc(=O)[nH]c(-c3ccccc3)n2)cc1 [Example 355, ethyl 4-[(1R)-1-{[(6-oxo-2-phenyl-1,6-dihydropyrimidin-4-yl)carbonyl]amino}ethyl]benzoate]	
1070		CC1(C(NC(=O)c2cc(=O)[nH]c(C3CC3)n2)c2ccc(SC(F)(F)F)c(F)c2)CC1 (single isomer, unassigned) [Example 705, (S)- or (R)-2-cyclopropyl-N-((3-fluoro-4-((trifluoromethyl)thio)phenyl)(1-methylcyclopropyl)methyl)-6-oxo-1,6-dihydropyrimidine-4-carboxamide]	
	24300	CN(Cc1cc(F)c(F)c(F)c1)C(=O)c1cc(=O)[nH]c(C2CC2)n1 [Example 206, 2-cyclopropyl-N-methyl-6-oxo-N-(3,4,5-trifluoromethyl)-1,6-dihydropyrimidine-4-carboxamide]	
	~39300	Cc1nc(C(=O)N[C@@H](c2ccc(C(F)(F)F)cc2)[C@H](C)O)cc(=O)[nH]1 [Example 64, N-((1S,2S)-2-hydroxy-1-(4-(trifluoromethyl)phenyl)propyl)-2-methyl-6-oxo-1,6-dihydropyrimidine-4-carboxamide]	
2800	> 1000	C[C@@H](NC(=O)c1cc(=O)[nH]c(-c2ccccc2)n1)c1cccc2ccccc12 [Example 354, N-[(1R)-1-naphthalen-1-ylethyl]-6-oxo-2-phenyl-1,6-dihydropyrimidine-4-carboxamide]	42
1500	~877	CC(C)c1ccc(CCNC(=O)c2cc(=O)[nH]c(-c3ccccc3)n2)cc1 [Example 348, N-{2-[4-(1-methylethyl)phenyl]ethyl}-6-oxo-2-phenyl-1,6-dihydropyrimidine-4-carboxamide]	
	274	C[C@@H](NC(=O)c1cc(=O)[nH]c(C2CC2)n1)c1ccc(C(F)(F)F)c2ccccc12 [Example 235, 2-cyclopropyl-6-oxo-N-{(1R)-1-[4-(trifluoromethyl)naphthalen-1-yl]ethyl}-1,6-dihydropyrimidine-4-carboxamide]	
1960		CC(NC(=O)c1cc(=O)[nH]c(-c2ccccc2)n1)c1cccc(-c2ccccc2)c1 (stereo not shown) [Example 410, N-(1-biphenyl-3-ylethyl)-6-oxo-2-phenyl-1,6-dihydropyrimidine-4-carboxamide]	
1100	~880	CC(NC(=O)c1cc(=O)[nH]c(-c2ccccc2)n1)c1cccc(Cl)c1 (stereo not shown) [Example 368, N-[1-(3-chlorophenyl)ethyl]-6-oxo-2-phenyl-1,6-dihydropyrimidine-4-carboxamide]	
136		CC(C)c1ccc(CNC(=O)c2cc(=O)[nH]c(-c3ccccc3)n2)cc1 [Example 414, N-[4-(1-methylethyl)benzyl]-6-oxo-2-phenyl-1,6-dihydropyrimidine-4-carboxamide]	
~11300		COc1ccc([C@H](C)NC(=O)c2cc(=O)[nH]c(-c3ccccc3)n2)cc1 [Example 357, N-[(1S)-1-(4-methoxyphenyl)ethyl]-6-oxo-2-phenyl-1,6-dihydropyrimidine-4-carboxamide]	
	3070	O=C(NCc1c(Cl)cc(C(F)(F)F)cc1Cl)c1cc(=O)[nH]c(C2CC2)n1 [Example 239, 2-cyclopropyl-N-[2,6-dichloro-4-(trifluoromethyl)benzyl]-6-oxo-1,6-dihydropyrimidine-4-carboxamide]	
	1280	CC(NC(=O)c1cc(=O)[nH]c(-c2ncccn2)n1)c1ccc(C(F)(F)F)cc1Cl (stereo not shown) [Example 96, N-{1-[2-chloro-4-(trifluoromethyl)phenyl]ethyl}-6-oxo-1,6-dihydro-2,2′-bipyrimidine-4-carboxamide]	
	524	COc1cc(C(C)NC(=O)c2cc(=O)[nH]c(-c3ncccn3)n2)ccc1C(F)(F)F (stereo not shown) [Example 104, N-{1-[3-methoxy-4-(trifluoromethyl)phenyl]ethyl}-6-oxo-1,6-dihydro-2,2′-bipyrimidine-4-carboxamide]	
~20300		CC(NC(=O)c1cc(=O)[nH]c(-c2ccccc2)n1)c1cccc(-c2ccc(F)cc2)c1 (stereo not shown) [Example 396, N-[1-(4′-fluorobiphenyl-3-yl)ethyl]-6-oxo-2-phenyl-1,6-dihydropyrimidine-4-carboxamide]	

SMILES	Ki [1] [nM]	Ki [2] [nM]	Rhesus PDE2 % inh. at 1 uM - Lab A (Rhesus PDE2, Lab A) [% inh.]
C[C@@H](NC(=O)c1cc(=O)[nH]c(-c2ccccc2)n1)c1ccc(C(F)(F)F)c2ccccc12 [Example 153]	~1970	> 1000	41
